Data from patent publication EP1492876B1, “CATIONIC AMPHIPHILES FOR INTRACELLULAR DELIVERY OF THERAPEUTIC MOLECULES, COMPOSITION, PROCESS AND USE THEREOF” (COUNCIL OF SCIENTIFIC AND INDUSTRIAL RESEARCH, priority 2002, dated 2003).

Tests used:
[1] = MTT based viability assay (toxicity assay); type: cell-based; conditions: monkey; COS-1 cells, 3:1 charge ratio
Procedure: Toxicity Assays. An MTT based viability assay was performed to assess the cytotoxicity of lipids 1-5 at various lipid:DNA charge ratios with COS-1 cells as described previously (Banerjee, R. et al. 1999). […] For lipids 1, 4 and 5 at a 3:1 charge ratio the toxicity varied from 15-25 % of the treated cells. The toxicity of lipid 2 (with shorter alkyl chains) may originate from its probable detergent-like cell-lysing activity.

DNA = assay: Lipid:DNA interactions assay (ethidium bromide exclusion, fluorescence); type: binding; conditions: EtBr: pCMV β-gal complex titrated with lipid, TE buffer pH 8.0; Figure 2
Text: Lipid:DNA Interactions Assay. Intercalation-induced fluorescence increase and competition with cationic lipids to bind to DNA has made Ethidium Bromide (EtBr) an excellent tool to study cationic lipid-DNA interactions. To assess the representative lipid:DNA interactions for the cationic lipids of the present invention, we have titrated the EtBr: pCMV β-gal complex with increasing amounts of cationic lipids 1-5.
The extent of Et.Br binding to the DNA was monitored by the changes in the fluorescence. EtBr fluorescence was monitored in Hitachi 4500 fluorimeter by setting the excitation wavelength at 518 nm and emission wavelength at 585 nm. To one ml of TE buffer (pH 8.0), 0.78 nmoles of DNA and 2.5 nmoles of EtBr were added. The change in fluorescence was monitored after adding small volumes of lipids 1-5 to the EtBr:DNA complex. Arbitrary fluorescence values were recorded after allowing sufficient time for equilibration. […] Percent fluorescence was calculated considering the fluorescence value in the absence of lipid as 100.

COS-1 cells = assay: Cell transfection (β-galactosidase reporter gene activity); type: cell-based; conditions: 0.15 µg plasmid DNA, lipid 0.05 - 4.3 nmoles, reporter gene activity after 48 h, Figure 1, compared with DMRIE
Procedure: Similar examples of plasmid include PGL-2 and PGL-3 of Promega and others.
Cell Transfection. COS-1 cells were seeded at a density of 15,000 cells/well in a 96-well plate eighteen hours before the transfection. 0.15 µg of plasmid DNA was complexed with varying amount of lipid (0.05 - 4.3 nmoles) in 13 µl of plain DMEM medium for 30 min. The charge ratios were varied from 0.1 : 1 to 9 : 1 (+/-) over this range of the lipid. The complex was diluted to 100 µl with plain DMEM and added to the wells. After 3 h of incubation, 100 µl of DMEM with 10 % FCS was added to the cells. The medium was changed to 10 % complete medium after 24 h and the reporter gene activity was estimated after 48 h. The cells were washed twice with PBS and lysed in 50 µl of lysis buffer (0.25 M Tris.HCl, pH 8.0 and 0.5% NP40). Care was taken to ensure complete lysis. The β-galactosidase activity per well was estimated by adding 50 µl of 2X substrate solution (1.33 mg/ml of ONPG, 0.2 M sodium phosphate, pH 7.15 and 2 mM magnesium chloride) to the lysate in a 96-well plate. Absorption at 405 nm was converted to β-galactosidase units by using calibration curve constructed with pure commercial β-galactosidase enzyme. The values of β-galactosidase units in replicate plates assayed on the same day varied by less than 30 %. […]

| Structure (SMILES) | cytotoxicity [1] [%] | lipid:DNA interaction (ability to exclude ethidium bromide from DNA) (DNA) | in vitro transfection efficiency (COS-1 cells) |
| --- | --- | --- | --- |
| CCCCCCCCCCCCCCCCCC[N+]1(CCCCCCCCCCCCCCCCCC)CC(O)C(O)C1 (stereo not drawn) [compound 4] | 15 to 25 | interact poorly with DNA |  |
| CCCCCCCCCCCCCCCC[N+]1(CCCCCCCCCCCCCCCC)CC(O)C(O)C1 (stereo not drawn) [compound 3] |  | interact with DNA equally well up to lipid:DNA ratio of 1.25 or so |  |
| CCCCCCCCCCCC[N+]1(CCCCCCCCCCCC)CC(O)C(O)C1 (stereo not drawn) [compound 1] | 15 to 25 | interact poorly with DNA |  |
| CCCCCCCCCCCCCC[N+]1(CCCCCCCCCCCCCC)CC(O)C(O)C1 (stereo not drawn) [compound 2] |  | interact with DNA equally well up to lipid:DNA ratio of 1.25 or so | comparable to or better than that of DMRIE |
| CCCCCCCC/C=C\CCCCCCCC[N+]1(CCCCCCCCCCCCCCCCCC)CC(O)C(O)C1 (stereo not drawn) [compound 5] | 15 to 25 | interact poorly with DNA |  |
